Measured values: patent US9695155B2, “Herbicidal substituted pyrimidinyloxy benzene compounds” (E. I. DU PONT DE NEMOURS AND COMPANY, priority 2013, dated 2017)

What was measured:
large (Lg) crabgrass [1] = assay: Test A preemergence; type: in vivo, Digitaria sanguinalis; conditions: for Crabgrass, Large plant response rating: 500 g ai/ha
How it was run: (§1)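 Greenhouse pot test, loam/sand soil. Formulation: non-phytotoxic solvent mix plus surfactant. Pre: directed spray onto soil after sowing. Post: plants at 1–2 leaf, 2–10 cm. Rated visually vs untreated controls at ~10 d, 0 (no effect) to 100 (complete control).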

corn = assay: Test A preemergence; type: in vivo, Zea mays; conditions: for Corn plant response rating: 500 g ai/ha
How it was run: as §1

rice = assay: Test B flooded paddy test; type: in vivo, Oryza sativa; conditions: Flood, 250 g ai/ha; 0 to 100 scale where 0 is no effect and 100 is complete control
How it was run: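 Post-emergence paddy-water application at the 2-leaf stage, with 3 cm flood kept for the whole test. Response was judged visually relative to controls after 13 to 15 greenhouse days, 0 indicating no effect and 100 complete control.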

large (Lg) crabgrass [2] = assay: Test C preemergence; type: in vivo, Digitaria sanguinalis; conditions: for Crabgrass, Large plant response rating: preemergence; for Plant response rating, Crabgrass, Large: Preemergence, scale 0 to 100, 0 no effect, 100 complete control
How it was run: (§2)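 Rated visually on 0–100 (100 = complete control) after 13–15 days under glass. Treatments went onto freshly seeded loam/sand soil or onto emerged plants at the 1- to 4-leaf stage, using a surfactant-containing solvent formulation.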

johnsongrass = assay: Test C preemergence; type: in vivo, Sorghum halepense; conditions: for Johnsongrass plant response rating: preemergence; for Plant response rating, Johnsongrass: Preemergence, scale 0 to 100, 0 no effect, 100 complete control
How it was run: as §2

lambsquarters = assay: Test C preemergence; type: in vivo, Chenopodium album; conditions: for Lambsquarters plant response rating: preemergence; for Plant response rating, Lambsquarters: Preemergence, scale 0 to 100, 0 no effect, 100 complete control
How it was run: as §2

wheat, winter = assay: Test C postemergence; type: in vivo, Triticum aestivum; conditions: for Plant response rating, Wheat / Wheat plant response rating: scale 0 to 100 (0 no effect, 100 complete control); for Wheat plant response rating: 31 g ai/ha
Source text: (§3) Seeds of plant species selected from blackgrass (Alopecurus myosuroides), Italian ryegrass (Lolium multiflorum), wheat, winter (winter wheat, Triticum aestivum), galium (catchweed bedstraw, Galium aparine), corn (Zea mays), large (Lg) crabgrass (Digitaria sanguinalis), giant foxtail (Setaria faberii), johnsongrass (Sorghum halepense), lambsquarters (Chenopodium album), morningglory (Ipomoea coccinea), yellow nutsedge (Cyperus esculentus), pigweed (Amaranthus retroflexus), ragweed (common ragweed, Ambrosia elatior), soybean (Glycine max), barnyardgrass (Echinochloa crus-galli), oilseed rape (Brassica napus), waterhemp (common waterhemp, Amaranthus rudis), kochia (Kochia scoparia), wild oat (Avena fatua), surinam grass (Brachiaria decumbens), foxtail, green (green foxtail, Setaria viridis), goosegrass (Eleusine indica), bromegrass, downy (downy bromegrass, Bromus tectorum), nightshade (eastern black nightshade, Solanum ptycanthum), cocklebur (common cocklebur, Xanthium strumarium), cupgrass, woolly (woolly cupgrass, Eriochloa villosa), bermudagrass (Cynodon dactylon), sunflower, (common oilseed sunflower, Helianthus annuus), Russian thistle (Salsola kali), and velvetleaf (Abutilon theophrasti) were planted into a blend of loam soil and sand and treated preemergence with test chemicals formulated in a non-phytotoxic solvent mixture which included a surfactant.
(§4) At the same time, plants selected from these crop and weed species and also barley, winter (winter barley, Hordeum vulgare), windgrass (Apera spica-venti), chickweed (common chickweed, Stellaria media), deadnettle (henbit deadnettle, Lamium amplexicaule), and canarygrass (littleseed canarygrass, Phalaris minor) were planted in pots containing Redi-Earth® planting medium (Scotts Company, 14111 Scottslawn Road, Marysville, Ohio 43041) comprising spaghnum peat moss, vermiculite, wetting agent and starter nutrients and treated with postemergence applications of test chemicals formulated in the same manner. Plants ranged in height from 2 to 18 cm (1- to 4-leaf stage) for postemergence treatments. Treated plants and controls were maintained in a greenhouse for 13 to 15 days, after which time all species were compared to controls and visually evaluated. Plant response ratings, summarized in Table C, are based on a scale of 0 to 100 where 0 is no effect and 100 is complete control. A dash (-) response means no test result.

ragweed = assay: Test C postemergence; type: in vivo, Ambrosia elatior; conditions: for Plant response rating, Ragweed / Ragweed plant response rating: scale 0 to 100 (0 no effect, 100 complete control); for Ragweed plant response rating: 31 g ai/ha
Source text: as §3, §4

kochia = assay: Test C postemergence; type: in vivo, Kochia scoparia; conditions: for Plant response rating, Kochia / Kochia plant response rating: scale 0 to 100 (0 no effect, 100 complete control); for Kochia plant response rating: 31 g ai/ha
Source text: as §3, §4

wild oat = assay: Test C postemergence; type: in vivo, Avena fatua; conditions: for Plant response rating, Oat, Wild / Oat, Wild plant response rating: scale 0 to 100 (0 no effect, 100 complete control); for Oat, Wild plant response rating: 31 g ai/ha
Source text: as §3, §4

[3] = 125 g ai/ha, 0 to 100 scale where 0 is no effect and 100 is complete control
[4] = 0 to 100 scale, 0 no effect, 100 complete control, approx. 10 days
[5] = 16 g ai/ha, scale 0 to 100 (0 no effect, 100 complete control)
[6] = 62 g ai/ha, scale 0 (no effect) to 100 (complete control)
[7] = 125 g ai/ha, scale 0 (no effect) to 100 (complete control)
[8] = 16 g ai/ha, postemergence, 0 is no effect, 100 is complete control
[9] = 125 g ai/ha, postemergence, visual rating
[10] = postemergence, visual rating, 13 to 15 days
[11] = 0 to 100 scale where 0 is no effect and 100 is complete control
[12] = Postemergence, 62 g ai/ha, 13 to 15 days

| Structure (SMILES) | Plant response rating, Crabgrass, Large (large (Lg) crabgrass [1]; [3]) | Plant response rating, Corn (corn; [3]) | Plant response rating, Rice (rice) | Crabgrass, Large plant response rating (large (Lg) crabgrass [2]; [5]) | Crabgrass, Large plant response rating (large (Lg) crabgrass [2]; [6]) | Crabgrass, Large plant response rating (large (Lg) crabgrass [2]; [7]) | Plant response rating, Crabgrass, Large (large (Lg) crabgrass [2]; 31 g ai/ha) | Johnsongrass plant response rating (johnsongrass; [5]) | Johnsongrass plant response rating (johnsongrass; [6]) | Johnsongrass plant response rating (johnsongrass; [7]) | Lambsquarters plant response rating (lambsquarters; [5]) | Lambsquarters plant response rating (lambsquarters; [6]) | Lambsquarters plant response rating (lambsquarters; [7]) | Plant response rating (0 to 100), Wheat (wheat, winter; [8]) | Plant response rating, Wheat (wheat, winter; [9]) | Plant response rating, Wheat (wheat, winter; Postemergence, 62 g ai/ha) | Plant response rating (0 to 100), Ragweed (ragweed; [8]) | Plant response rating, Ragweed (ragweed; [9]) | Plant response rating, Kochia (kochia; [9]) | Plant response rating, Oat, Wild (wild oat; [9]) | also measured |
| --- | --- | --- | --- | --- | --- | --- | --- | --- | --- | --- | --- | --- | --- | --- | --- | --- | --- | --- | --- | --- | --- |
| Fc1cnc(Oc2cccc(C(F)F)c2-n2cc(Br)cn2)nc1 [Compound 112] | 100 | 0 | 0 | 35 | 100 | 100 | 100 | 0 | 20 | 40 | 98 | 100 | 98 | – | – | – | – | – | – | – | Crabgrass, Large plant response rating (large (Lg) crabgrass [1]; [4]): 100; Corn plant response rating (corn; [4]): 50; Plant response rating, Johnsongrass (johnsongrass; 31 g ai/ha): 5; Plant response rating, Lambsquarters (lambsquarters; 31 g ai/ha): 100 |
| FCc1cccc(Oc2ncc(Br)cn2)c1-n1cc(C(F)(F)F)cn1 [Compound 120] | – | – | 0 | – | – | – | – | – | – | – | – | – | – | 0 | 0 | 0 | 10 | 60 | 100 | 5 | Plant response rating, Ragweed (ragweed; Postemergence, 62 g ai/ha): 25; Plant response rating (0 to 100), Kochia (kochia; [8]): 75; Plant response rating, Kochia (kochia; Postemergence, 62 g ai/ha): 95; Plant response rating (0 to 100), Oat, Wild (wild oat; [8]): 0; Plant response rating, Oat, Wild (wild oat; Postemergence, 62 g ai/ha): 5 |
| Fc1cccc(Oc2ncc(Cl)cn2)c1-n1cc(C2CC2)nn1 [Compound 155] | – | – | 50 | – | – | – | – | – | – | – | – | – | – | 5 | 35 | 15 | 50 | 85 | 100 | 25 | Wheat plant response rating (wheat, winter; [10]): 10; Ragweed plant response rating (ragweed; [10]): 55; Plant response rating, Ragweed (ragweed; Postemergence, 62 g ai/ha): 70; Plant response rating (0 to 100), Kochia (kochia; [8]): 80; Kochia plant response rating (kochia; [10]): 98; Plant response rating, Kochia (kochia; Postemergence, 62 g ai/ha): 98; Plant response rating (0 to 100), Oat, Wild (wild oat; [8]): 0; Oat, Wild plant response rating (wild oat; [10]): 0; Plant response rating, Oat, Wild (wild oat; Postemergence, 62 g ai/ha): 5 |
| Fc1cccc(Oc2ncc(Cl)cn2)c1-n1cc(I)cn1 [Compound 179] | 100 | 0 | 0 | 55 | 98 | 100 | 90 | 0 | 65 | 98 | 85 | 100 | 100 | – | – | – | – | – | – | – | Crabgrass, Large plant response rating (large (Lg) crabgrass [1]; [11]): 100; Corn plant response rating (corn; [11]): 10 |
| CCOc1cnn(-c2ccccc2Oc2ncc(Cl)cn2)c1 [Compound 187] | – | – | 0 | 5 | – | 100 | – | 0 | – | 45 | 5 | – | 100 | – | – | – | – | – | – | – | Crabgrass, Large plant response rating (0 to 100 scale) (large (Lg) crabgrass [1]; 125 g ai/ha): 100; Crabgrass, Large plant response rating (large (Lg) crabgrass [1]; [11]): 100; Corn plant response rating (0 to 100 scale) (corn; 125 g ai/ha): 0; Corn plant response rating (corn; [11]): 40; Plant response rating, Crabgrass, Large (large (Lg) crabgrass [2]; 62 g ai/ha): 100; Plant response rating, Johnsongrass (johnsongrass; 62 g ai/ha): 30; Plant response rating, Lambsquarters (lambsquarters; 62 g ai/ha): 98 |
| N#Cc1cccc(Oc2ncc(Cl)cn2)c1-n1cc(-n2ccc(C(F)(F)F)n2)cn1 [Compound 284] | – | – | 0 | – | – | – | – | – | – | – | – | – | – | – | 5 | – | – | 50 | 100 | 5 | Wheat plant response rating (wheat, winter; [10]): 0; Plant response rating (0 to 100), Wheat (wheat, winter; 250 g ai/ha, postemergence): 5; Plant response rating, Wheat (wheat, winter; [12]): 5; Ragweed plant response rating (ragweed; [10]): 55; Plant response rating (0 to 100), Ragweed (ragweed; 250 g ai/ha, postemergence): 80; Plant response rating, Ragweed (ragweed; [12]): 55; Kochia plant response rating (kochia; [10]): 100; Plant response rating (0 to 100), Kochia (kochia; 250 g ai/ha, postemergence): 100; Plant response rating, Kochia (kochia; [12]): 100; Oat, Wild plant response rating (wild oat; [10]): 5; Plant response rating (0 to 100), Oat, Wild (wild oat; 250 g ai/ha, postemergence): 5; Plant response rating, Oat, Wild (wild oat; [12]): 5 |
